Key:
Assay in all cases: relative viability (nuclei count vs DMSO), 5 days (fraction); higher = more cells survive
[1] = compound: C1CNCCC1C2=CC(=NN2)C3=CC=NC=C3 + Cc1cc(Nc2cc(N3CCN(C)CC3)nc(Sc3ccc(NC(=O)C4CC4)cc3)n2)n[nH]1 [Tozasertib] (partner 0.1 µM)
Summary of the method: (§1)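 Medians of duplicate plates are given as relative viability. That measure is the nuclei count in treated wells divided by the count in vehicle wells. Counts were taken on 4× images of lung cancer cell lines in 1536-well plates, 5 days after pin-tool dosing the day after seeding with one drug alone or a fixed anchor-drug dose plus five library-drug doses (not always all listed) in √10 steps.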

[2] = compound: C1CNCCC1C2=CC(=NN2)C3=CC=NC=C3 + CC(=O)Nc1cccc(-n2c(=O)n(C3CC3)c(=O)c3c(Nc4ccc(I)cc4F)n(C)c(=O)c(C)c32)c1 [Trametinib] (partner 0.02 µM)
Summary of the method: as §1

[3] = compound: O[C@H]1CC[C@H](Nc2ncc3nc(Nc4c(F)cc(F)cc4F)n([C@H]4CCOC4)c3n2)CC1 [Tanzisertib] + COc1cc2c(Oc3ccc(NC(=O)C4(C(=O)Nc5ccc(F)cc5)CC4)cc3F)ccnc2cc1OCCCN1CCOCC1 [Foretinib] (partner 0.25 µM)
Summary of the method: as §1

[4] = compound: C1CNCCC1C2=CC(=NN2)C3=CC=NC=C3 + COc1cc2c(Oc3ccc(NC(=O)C4(C(=O)Nc5ccc(F)cc5)CC4)cc3F)ccnc2cc1OCCCN1CCOCC1 [Foretinib] (partner 0.25 µM)
Summary of the method: as §1

| Cell Line | relative viability ([1]; first compound 0.08 µM) | relative viability ([1]; first compound 0.8 µM) | relative viability ([1]; first compound 2.53 µM) | relative viability ([1]; first compound 8 µM) | relative viability ([2]; first compound 0.08 µM) | relative viability ([2]; first compound 0.8 µM) | relative viability ([2]; first compound 2.53 µM) | relative viability ([2]; first compound 8 µM) | relative viability ([3]; first compound 0.08 µM) | relative viability ([3]; first compound 0.253 µM) | relative viability ([3]; first compound 0.8 µM) | relative viability ([3]; first compound 2.53 µM) | relative viability ([3]; first compound 8 µM) | relative viability ([4]; first compound 0.08 µM) | relative viability ([4]; first compound 0.8 µM) | relative viability ([4]; first compound 2.53 µM) | relative viability ([4]; first compound 8 µM) |
| --- | --- | --- | --- | --- | --- | --- | --- | --- | --- | --- | --- | --- | --- | --- | --- | --- | --- |
| NCI-H1666 | 0.59 | 0.7 | 0.693 | 0.755 | 0.749 | 0.87 | 0.979 | 0.915 | 0.957 | 0.96 | 0.978 | 1.01 | 0.976 | 0.887 | 0.987 | 0.963 | 1.03 |
| EPLC-272H | 0.357 | 0.221 | 0.367 | 0.314 | 0.283 | 0.278 | 0.319 | 0.344 | 0.737 | 0.692 | 0.714 | 0.65 | 0.666 | 0.647 | 0.674 | 0.678 | 0.706 |
| ChaGo-K-1 | 0.237 | 0.223 | 0.232 | 0.216 | 0.916 | 0.85 | 0.897 | 0.807 | 0.969 | 0.982 | 0.861 | 0.94 | 0.891 | 0.997 | 1.01 | 0.886 | 0.923 |
| NCI-H1651 | 0.598 | 0.685 | 0.767 | 0.735 | 0.816 | 0.855 | 0.897 | 0.815 | 0.875 | 0.951 | 0.794 | 0.996 | 0.539 | 0.763 | 0.839 | 0.7 | 0.851 |
| SW 1573 | – | 0.202 | 0.174 | 0.148 | – | 0.6 | 0.556 | 0.622 | 0.73 | 0.92 | 0.898 | 0.933 | 0.819 | 0.679 | 0.967 | 0.901 | 1.03 |
| PC-3 [JPC-3] | 0.832 | 0.914 | 0.889 | 0.853 | 0.637 | 0.718 | 0.734 | 0.684 | 1.07 | 1.06 | 1.08 | 1.06 | 0.889 | 1.01 | 1.07 | 1.1 | 1.04 |
| LOU-NH91 | 0.673 | 0.648 | 0.696 | 0.58 | 0.778 | 0.769 | 0.841 | 0.766 | 0.914 | 0.946 | 0.903 | 0.87 | 0.639 | 0.944 | 0.911 | 1 | 0.936 |
| PC-14 | 0.648 | 0.589 | 0.661 | 0.542 | 0.64 | 0.761 | 0.903 | 0.763 | 1.05 | 0.983 | 0.933 | 0.951 | 0.61 | 0.942 | 1.03 | 1.01 | 0.942 |
| NCI-H2087 | 0.267 | 0.231 | 0.226 | 0.202 | 0.216 | 0.226 | 0.181 | 0.291 | 1.23 | 0.992 | 1.12 | 1.06 | 1.09 | 0.982 | 1.19 | 1.05 | 1.1 |
| LU99A | 0.307 | 0.267 | 0.278 | 0.304 | 0.48 | 0.616 | 0.561 | 0.543 | 0.828 | 0.81 | 0.798 | 0.765 | 0.837 | 0.766 | 0.87 | 0.864 | 0.797 |
| BEN | 0.575 | 0.514 | 0.45 | 0.513 | 0.769 | 0.936 | 1.05 | 1.02 | 0.619 | 0.75 | 0.679 | 0.766 | 0.828 | 0.548 | 0.752 | 0.646 | 0.692 |
| SK-LU-1 | 0.321 | 0.367 | 0.391 | 0.334 | 0.449 | 0.445 | 0.541 | 0.528 | 0.837 | 0.755 | 0.807 | 0.815 | 0.781 | 0.813 | 0.946 | 0.951 | 0.885 |
| NCI-H1975 | 0.885 | 0.759 | 0.725 | 0.724 | 0.342 | 0.249 | 0.356 | 0.394 | 0.968 | 0.968 | 1.03 | 0.946 | 0.841 | 1.07 | 1.03 | 0.962 | 0.932 |
| RERF-LC-KJ | 0.525 | 0.51 | 0.591 | 0.426 | 0.837 | 0.83 | 0.966 | 0.858 | 0.929 | 0.788 | 0.873 | 0.841 | 0.842 | 0.871 | 0.942 | 0.837 | 0.924 |
| NCI-H441 | 0.532 | 0.613 | 0.727 | 0.73 | 0.425 | 0.469 | 0.555 | 0.461 | 0.488 | 0.797 | 1.03 | 0.994 | 0.752 | 0.945 | 1.18 | 1.12 | 0.834 |
| LCLC-103H | 0.469 | 0.534 | 0.459 | 0.443 | 0.689 | 0.724 | 0.67 | 0.674 | 0.79 | 0.784 | 0.806 | 0.71 | 0.765 | 0.777 | 0.695 | 0.72 | 0.883 |
| HCC-78 | 0.439 | 0.325 | 0.459 | 0.392 | 0.742 | – | 0.821 | 0.757 | 0.545 | 0.614 | 0.584 | 0.583 | 0.585 | 0.532 | 0.507 | 0.602 | 0.536 |
| NCI-H1915 | 0.475 | 0.435 | 0.451 | 0.438 | 0.289 | 0.298 | 0.3 | 0.299 | 1.12 | 1.1 | 1.11 | 1.11 | 1.16 | 1.07 | 1.13 | 1.06 | 1.09 |

— the supplement of paper PMC10307832
